Read-outs that look alike come from different tables or passages of the source.
How the values were obtained:
FAP protein = biological target: T1, FAP protein (Homo sapiens, UniProt Q12884); experiment: Biacore test of ligand binding to FAP protein; settings: FAP protein on SA chip, 15° C., 1:1 binding model
T1 construct: purchased Sinobiological
T1 sequence (Q12884 1-760): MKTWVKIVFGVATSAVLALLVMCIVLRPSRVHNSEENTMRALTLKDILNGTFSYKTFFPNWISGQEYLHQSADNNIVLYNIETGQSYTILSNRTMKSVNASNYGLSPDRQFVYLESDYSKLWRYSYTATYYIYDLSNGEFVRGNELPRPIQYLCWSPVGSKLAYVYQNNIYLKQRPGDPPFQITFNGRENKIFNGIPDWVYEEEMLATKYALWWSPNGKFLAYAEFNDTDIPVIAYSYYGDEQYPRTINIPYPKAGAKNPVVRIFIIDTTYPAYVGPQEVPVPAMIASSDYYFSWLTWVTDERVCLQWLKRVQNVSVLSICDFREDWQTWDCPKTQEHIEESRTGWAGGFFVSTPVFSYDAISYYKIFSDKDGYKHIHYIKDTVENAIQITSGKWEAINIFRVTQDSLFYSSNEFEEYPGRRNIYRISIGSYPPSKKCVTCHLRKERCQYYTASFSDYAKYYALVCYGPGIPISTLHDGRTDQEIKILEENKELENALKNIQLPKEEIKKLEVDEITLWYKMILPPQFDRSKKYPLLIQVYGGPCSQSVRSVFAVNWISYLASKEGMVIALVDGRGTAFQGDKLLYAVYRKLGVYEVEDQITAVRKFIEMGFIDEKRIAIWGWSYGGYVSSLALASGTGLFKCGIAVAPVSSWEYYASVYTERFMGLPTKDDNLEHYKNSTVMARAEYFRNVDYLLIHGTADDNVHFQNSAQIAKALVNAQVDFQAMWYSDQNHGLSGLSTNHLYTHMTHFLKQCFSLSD
Description: The Biacore 8K (Cytiva) instrument was used to detect ligand binding of the FAP protein (Sinobiological). The FAP protein was captured on the SA chip. Before ligand immobilization (flow paths 1 and 2, flow rate of 10 μL/min), the FAP protein (10 μg/mL, flow rate of 5 μL/min, injection time of 600 s) was immobilized on flow path 2 using running buffer, and the sensor surface was conditioned with three consecutive injections of 1 M NaCl in 50 mM NaOH. After each ligand injection, additional washing was carried out with isopropanol in 1 M NaCl and 50 mM NaOH (flow paths 1 and 2, flow rate of 10 μL/min, injection time of 60 s).
The test compounds were dissolved in 100% dimethyl sulfoxide and diluted to 10 mM, then further diluted in the assay buffer (PBS, pH 7.4, 1 mM TCEP ([…]), 0.05% P20, 2% dimethyl sulfoxide) to appropriate maximum concentrations. The analyte was run under the following conditions: analysis temperature=15° C., analysis step=all set to LMW kinetics; cycle type=single cycle (90 s contact time, 1800 s dissociation time, 30 μL/min flow rate, flow channels 1, 2); flow channel detection=2-1). Data evaluation was performed using Biacore Insight Evaluation Software, and the data were fitted to a 1:1 binding model.
The Biacore results are shown in Table 1: pKD=−Log KD, where KD is the binding affinity of the compound to the FAP protein as measured by Biacore. The binding affinity is expressed by KD (M)=Kd(1/s)/Ka(1/Ms). Where A: pKD>8, B: 7<pKD<8, C: 6<pKD<7, D: pKD<6.

HT1080 8 #cells = experiment: Cell competitive binding assay against ^177Lu-radiolabeled FAPi-46
Description: (1) HT1080 8 #cells in the logarithmic growth phase were prepared into a cell suspension, and the cell density was adjusted to 1×10^4/mL. 1 mL of the suspension was seeded into a 24-well cell culture plate. The plate was incubated overnight in a 37° C. incubator.
(2) The cell culture medium was aspirated, and the cells were washed once with PBS, followed by the addition of 975 μL of additive-free medium.
(3) To each well, 25 µL of ^177Lu-radiolabeled FAPi-46 (Nanchang Tanzhen Biotechnology Co., Ltd., CAS: 2374782-04-2) at a fixed concentration (final concentration in culture medium: 1.35 μCi/mL) and varying concentrations (final concentrations in culture medium: 1000 ng/mL, 100 ng/ml, 10 ng/ml, 1 ng/mL, 0.1 ng/ml, 0.01 ng/mL, 0.001 ng/mL, 0 ng/ml) of unlabeled test compounds JHH8, JHDB8, and JHH9 were added.
(4) The mixture was incubated on ice for 2 hours.
(5) The cells were washed three times with ice-cold PBS.
(6) The cells were lysed with 0.5 mL of 1 M sodium hydroxide, washed twice with 0.5 mL of PBS, and the sodium hydroxide solution (0.5 mL) and PBS solutions (0.5 mL×2) were collected for uptake counting.
The control compound was OncoFAP-DOTAGA (structural formula: […]
The cell competitive binding of compounds JHH5, JHH4, JHH10, JHH8, H4b, H5b, and H8b was tested in the same batch using the above method, and the experimental results are shown in Table 3 and FIG. 3.

In the case of `N#C[C@@H]1CC(F)(F)CN1C(=O)CNC(=O)c1cccc2c1CCN(C(=O)CCC(=O)NCCNC(=O)CCC(C(=O)O)N1CCN(CC(=O)O)CCN(CC(=O)O)CCN(CC(=O)O)CC1)C2` (stereo partly drawn) [JHH5], the Kd (FAP protein) is reported as < 10 nM, the EC50 (HT1080 8 #cells; EC50 (ng/mL) converted with molecular weight, read-out: EC50) is reported as 1.82 nM and the “EC50” value (HT1080 8 #cells; competition with ^177Lu-FAPi-46, on ice 2 hours) is reported as 1.726 ng/mL.

Reference: patent US20260226049A1, “NITROGEN-CONTAINING HETEROCYCLIC COMPOUND, PREPARATION METHOD THEREFOR, AND USE THEREOF” (BIVISION PHARMACEUTICALS, INC, priority 2023, published 2026)
